Measured values as given in paper PMC6688628, “N-Substituted Pyrrole Derivative 12m Inhibits HIV-1 Entry by Targeting Gp41 of HIV-1 Envelope Glycoprotein” (Frontiers in Pharmacology, 2019).
Where two headings read alike, the source gives them in different places.

Tests used:
[1] = system: HIV-1 NL4-3(36G)V38E,N42S; details: T20-resistant NL4-3(36G)V38E,N42S; p24 ELISA; mean ± SD
[2] = system: HIV-1 NL4-3(36G)V38A,N42T; details: T20-resistant NL4-3(36G)V38A,N42T; p24 ELISA; mean ± SD
HIV-1 NL4-3D36G = format: cell-based; details: T20-sensitive parent strain, p24 ELISA, mean ± SD
HIV-1 NL4-3(36G)V38A = details: T20-resistant NL4-3(36G)V38A; p24 ELISA; mean ± SD
HIV-1 92UG029 = assay: Anti-HIV-1 activity, primary strain 92UG029; format: cell-based; details: luciferase readout, mean ± SD
[3] = system: HIV-1 NL4-3(36G)V38A,N42D; details: T20-resistant NL4-3(36G)V38A,N42D; p24 ELISA; mean ± SD
[4] = system: HIV-1JR-FL Env mutant K574A pseudovirus; format: cell-based; details: compared with wild-type HIV-1JR-FL pseudovirus
HIV-1 93/BR/020 = assay: microbe, parasite or virus in culture; format: cell-based
Protocol: (§1) The HIV-1 replication-inhibiting activity of compounds was determined as previously described ([Li et al., 2013]). Briefly, 1 × 10^4 TZM-bl or MT-2 cells were infected with primary HIV-1 strains or T20-resistant HIV-1 strains (100 TCID50) in 200 µl of RPMI-1640 medium containing 10% FBS in the presence or absence of compounds at graded concentrations for 12 h. The culture medium was replaced with fresh medium without the compounds. After culture for an additional 48 h, supernatants or cells were collected from each well. For the primary HIV-1 strains, the cells were treated using a luciferase kit. Briefly, the cells were lysed with the lysis reagent and were transferred into a 96-well flat-bottom luminometer plate after three washes with phosphate-buffered saline (PBS) (Costar Corning Inc., Corning, NY), followed by addition of the luciferase substrate included in the luciferase kit (Promega Corp., Madison, WI). The luciferase activity was measured immediately by an Ultra 384 microplate reader (Tecan, Research Triangle Park, NC). T20 was used as a positive control. For the T20-resistant HIV-1 strains, 100 µl of culture supernatant was mixed with 100 µl of 5% Triton X-100. Then, those virus lysates were assayed for p24 antigen by enzyme linked immunosorbent assay (ELISA) as previously described ([Li et al., 2010]). Absorbance at 450 nm was recorded in an ELISA reader (Ultra 384, Tecan). EC50 values were calculated using the computer program CalcuSyn ([Chou and Talalay, 1984]).

HIV-1 US4 (GS 007) = assay: microbe, parasite or virus in culture; format: cell-based
Protocol: as §1

HIV-1 BCF02 = assay: microbe, parasite or virus in culture; format: cell-based
Protocol: as §1

[5] = system: HIV-1 NL4-3(36G)N42T,N43K; details: T20-resistant NL4-3(36G)N42T,N43K; p24 ELISA; mean ± SD
[6] = system: R5 and X4 HIV-1 strains (Env pseudotyped viruses); format: cell-based
HIV-1 = system: HIV-1; parameters: method as in Jiang et al., 2004; details: inhibition of HIV-1 entry; ref Jiang et al., 2004; cited from earlier work

## COc1ccc(S(=O)(=O)[O-])cc1N=Nc1c(S(=O)(=O)[O-])cc2cc(Nc3nc(Nc4ccccc4)nc(Nc4cc(C)c(N=Nc5cc(S(=O)(=O)[O-])cc6cc(S(=O)(=O)[O-])cc(O)c56)cc4OC)n3)ccc2c1O.[Na+].[Na+].[Na+].[Na+] [ADS-J1]
[1]
  IC50: 110 ± 10 nM
  IC90: 330 ± 10 nM
[2]
  IC50: 620 ± 160 nM
  IC90: 8390 ± 1550 nM
HIV-1 NL4-3D36G
  IC50: 940 ± 30 nM
  IC90: 2030 ± 200 nM
HIV-1 NL4-3(36G)V38A
  IC50: 160 ± 40 nM
  IC90: 400 ± 50 nM
HIV-1 92UG029
  IC50: 20600 ± 5290 nM
  IC90: 32200 ± 6710 nM
[3]
  IC50: 650 ± 180 nM
  IC90: 8200 ± 2650 nM
[4]
  inhibitory activity against K574A mutant pseudovirus: exerted inhibitory activity
HIV-1 93/BR/020; primary strain 93/BR/020, luciferase readout, mean ± SD
  IC50: 13000 ± 3490 nM
HIV-1 93/BR/020; primary strain 93/BR/020, luciferase readout, mean ± SD, read-out: IC90
  IC90: 27000 ± 4300 nM
HIV-1 US4 (GS 007); primary strain US4 (GS 007), luciferase readout, mean ± SD, read-out: IC50
  IC50: 4620 ± 760 nM
HIV-1 US4 (GS 007); primary strain US4 (GS 007), luciferase readout, mean ± SD, read-out: IC90
  IC90: 9900 ± 1440 nM
HIV-1 BCF02; primary strain BCF02, luciferase readout, mean ± SD, read-out: IC50
  IC50: 1450 ± 260 nM
HIV-1 BCF02; primary strain BCF02, luciferase readout, mean ± SD, read-out: IC90
  IC90: 3060 ± 420 nM
[5]
  IC50: 610 ± 250 nM
  IC90: 4240 ± 1210 nM

## c1cc(CN2CCCNCCNCCCNCC2)ccc1CN1CCCNCCNCCCNCC1 [AMD3100]
[6]
  inhibitory activity against the R5 and X4 HIV-1 strains: strong inhibitory activity

## O=C(O)c1cc(-n2cccc2)ccc1Cl [NB-64]
HIV-1
  effective concentration for 50% inhibition (EC50): on the µM level

## Enfuvirtide
[1]
  IC50: > 2000 nM
  IC90: > 2000 nM
[2]
  IC50: > 2000 nM
  IC90: > 2000 nM
[6]; positive controls, single-cycle pseudovirus infection
  inhibitory activity against the R5 and X4 HIV-1 strains: strong inhibitory activity
HIV-1 NL4-3(36G)V38A
  IC50: 279 ± 82 nM
  IC90: > 2000 nM
[3]
  IC50: 895 ± 310 nM
  IC90: > 2000 nM
HIV-1 93/BR/020; 93/BR/020, 12 h
  IC90: 313 ± 22 nM
HIV-1 US4 (GS 007); US4 (GS 007, 12 h)
  IC50: 59 ± 10 nM
  IC90: 1430 ± 443 nM
HIV-1 BCF02; BCF02, 12 h
  IC50: 50 ± 22 nM
  IC90: 502 ± 338 nM
[5]
  IC50: > 2000 nM
  IC90: > 2000 nM
